Tests used:
OVCAR-8 = test: Growth inhibition of human OVCAR8 cells assessed as cell growth at 10 uM incubated for 48 hrs by sulforhodamine B assay relative to control; format: functional; settings: OVCAR-8, 48 h, read-out: Activity
NCI-H522 = test: Growth inhibition of human NCI-H522 cells incubated for 48 hrs by sulforhodamine B assay; format: functional, cell-based; settings: NCI-H522, 48 h
DU-145 = test: Growth inhibition of human DU145 cells assessed as cell growth at 10 uM incubated for 48 hrs by sulforhodamine B assay relative to control; format: functional; settings: DU-145, 48 h, read-out: Activity
UACC-62 = test: Growth inhibition of human UACC62 cells assessed as cell growth at 0.01 uM incubated for 48 hrs by sulforhodamine B assay relative to control; format: functional; settings: UACC-62, 48 h, read-out: Activity
MDA-MB-435 = test: Growth inhibition of human MDA-MB-435 cells assessed as cell growth at 100 uM incubated for 48 hrs by sulforhodamine B assay relative to control; format: functional; settings: MDA-MB-435, 48 h, read-out: Activity
UO-31 [1] = test: Growth inhibition of human UO31 cells assessed as cell growth at 0.01 uM incubated for 48 hrs by sulforhodamine B assay relative to control; format: functional; settings: UO-31, 48 h, read-out: Activity
A498 = test: Growth inhibition of human A498 cells assessed as cell growth at 10 uM incubated for 48 hrs by sulforhodamine B assay relative to control; format: functional; settings: A498, 48 h, read-out: Activity
NCI-H322M = test: Growth inhibition of human NCI-H322M cells assessed as cell growth at 10 uM incubated for 48 hrs by sulforhodamine B assay relative to control; format: functional; settings: read-out: Activity
SF-268 = test: Growth inhibition of human SF268 cells assessed as cell growth at 0.1 uM incubated for 48 hrs by sulforhodamine B assay relative to control; format: functional; settings: SF-268, 48 h, read-out: Activity
PC-3 = test: Growth inhibition of human PC3 cells assessed as cell growth at 10 uM incubated for 48 hrs by sulforhodamine B assay relative to control; format: functional; settings: PC-3, 48 h, read-out: Activity
786-0 = test: Growth inhibition of human 786-0 cells assessed as cell growth at 10 uM incubated for 48 hrs by sulforhodamine B assay relative to control; format: functional; settings: 786-0, 48 h, read-out: Activity
HCT-116 [2] = test: Growth inhibition of human HCT116 cells assessed as cell growth at 0.01 uM incubated for 48 hrs by sulforhodamine B assay relative to control; format: functional; settings: HCT-116, 48 h, read-out: Activity
COLO 205 = test: Growth inhibition of human COLO205 cells assessed as cell growth at 10 uM incubated for 48 hrs by sulforhodamine B assay relative to control; format: functional; settings: COLO 205, 48 h, read-out: Activity
Malme-3M = test: Growth inhibition of human MALME-3M cells assessed as cell growth at 10 uM incubated for 48 hrs by sulforhodamine B assay relative to control; format: functional; settings: read-out: Activity
T47D = test: Growth inhibition of human T47D cells incubated for 48 hrs by sulforhodamine B assay; format: functional, cell-based
UO-31 [3] = test: Growth inhibition of human UO31 cells assessed as cell growth at 10 uM incubated for 48 hrs by sulforhodamine B assay relative to control; format: functional; settings: UO-31, 48 h, read-out: Activity
MCF7 = test: Growth inhibition of human MCF7 cells assessed as cell growth at 10 uM incubated for 48 hrs by sulforhodamine B assay relative to control; format: functional; settings: MCF7, 48 h, read-out: Activity
CCRF-CEM = test: Growth inhibition of human CCRF-CEM cells assessed as cell growth at 10 uM incubated for 48 hrs by sulforhodamine B assay relative to control; format: functional; settings: read-out: Activity
SK-MEL-28 = test: Growth inhibition of human SK-MEL-28 cells assessed as cell growth at 10 uM incubated for 48 hrs by sulforhodamine B assay relative to control; format: functional; settings: SK-MEL-28, 48 h, read-out: Activity
MOLT-4 = test: Growth inhibition of human MOLT4 cells assessed as cell growth at 10 uM incubated for 48 hrs by sulforhodamine B assay relative to control; format: functional; settings: MOLT-4, 48 h, read-out: Activity
HCT-15 = test: Growth inhibition of human HCT15 cells assessed as cell growth at 10 uM incubated for 48 hrs by sulforhodamine B assay relative to control; format: functional; settings: HCT-15, 48 h, read-out: Activity
Hs-578T = test: Growth inhibition of human Hs578T cells assessed as cell growth at 0.1 uM incubated for 48 hrs by sulforhodamine B assay relative to control; format: functional; settings: read-out: Activity
SK-MEL-5 = test: Growth inhibition of human SK-MEL-5 cells assessed as cell growth at 10 uM incubated for 48 hrs by sulforhodamine B assay relative to control; format: functional; settings: SK-MEL-5, 48 h, read-out: Activity
UACC-257 = test: Growth inhibition of human UACC257 cells assessed as cell growth at 10 uM incubated for 48 hrs by sulforhodamine B assay relative to control; format: functional; settings: UACC-257, 48 h, read-out: Activity
A549 = test: Growth inhibition of human A549/ATCC cells assessed as cell growth at 10 uM incubated for 48 hrs by sulforhodamine B assay relative to control; format: functional; settings: A549, 48 h, read-out: Activity
NCI-H23 = test: Growth inhibition of human NCI-H23 cells assessed as cell growth at 10 uM incubated for 48 hrs by sulforhodamine B assay relative to control; format: functional; settings: NCI-H23, 48 h, read-out: Activity
SNB-75 = test: Growth inhibition of human SNB75 cells assessed as cell growth at 0.1 uM incubated for 48 hrs by sulforhodamine B assay relative to control; format: functional; settings: SNB-75, 48 h, read-out: Activity
NCI/ADR-RES = test: Growth inhibition of human NCI/ADR-RES cells assessed as cell growth at 10 uM incubated for 48 hrs by sulforhodamine B assay relative to control; format: functional; settings: read-out: Activity
SR = test: Growth inhibition of human SR cells incubated for 48 hrs by sulforhodamine B assay; format: functional, cell-based
HOP-62 = test: Growth inhibition of human HOP62 cells assessed as cell growth at 10 uM incubated for 48 hrs by sulforhodamine B assay relative to control; format: functional; settings: HOP-62, 48 h, read-out: Activity
SN12C = test: Growth inhibition of human SN12C cells assessed as cell growth at 10 uM incubated for 48 hrs by sulforhodamine B assay relative to control; format: functional; settings: read-out: Activity
HCT-116 [4] = test: Growth inhibition of human HCT116 cells assessed as cell growth at 0.1 uM incubated for 48 hrs by sulforhodamine B assay relative to control; format: functional; settings: HCT-116, 48 h, read-out: Activity
[5] = read-out: LC50 (the source's name)
[6] = read-out: pLC50 (the source's name) (converted)

For O=C(Nc1cccc(-n2cc(-c3ccncc3)c(-c3cc(O)cc(Cl)c3)n2)c1)c1ccc(N2CCOCC2)c(C(F)(F)F)c1, the growth at 10 µM (OVCAR-8) was 22.7%, the GI50 (NCI-H522; read-out: GI50) was 0.934 µM and the CC50 (NCI-H522; [5]) was > 100 µM. For the same compound, the TGI (NCI-H522; read-out: TGI) was 12.1 µM, the GI50 (NCI-H522; read-out: pGI50 (converted)) was 0.933 µM and the CC50 (NCI-H522; [6]) was > 100 µM. It also gave a TGI (NCI-H522; read-out: pTGI (converted)) of 12 µM, a growth at 10 µM (DU-145) of 38% and a growth at 0.01 µM (UACC-62) of 96%. The growth at 100 µM (MDA-MB-435) was 8%, the growth at 0.01 µM (UO-31 [1]) was 85% and the growth at 10 µM (A498) was 72.7%. It also gave a growth at 10 µM (NCI-H322M) of 43.5%, a growth at 0.1 µM (SF-268) of 101% and a growth at 10 µM (PC-3) of 19.1%. The growth at 10 µM (786-0) was 36.6%, the growth at 0.01 µM (HCT-116 [2]) was 102% and the growth at 10 µM (COLO 205) was 80.5%. The growth at 10 µM (Malme-3M) was -26.9%, the GI50 (T47D; read-out: GI50) was 3.81 µM and the CC50 (T47D; [5]) was > 100 µM. For the same compound, the TGI (T47D; read-out: TGI) was > 100 µM, the GI50 (T47D; read-out: pGI50 (converted)) was 3.8 µM and the CC50 (T47D; [6]) was > 100 µM. The TGI (T47D; read-out: pTGI (converted)) was > 100 µM, the growth at 10 µM (UO-31 [3]) was 3.98% and the growth at 10 µM (MCF7) was 29.7%. The growth at 10 µM (CCRF-CEM) was 13.1%, the growth at 10 µM (SK-MEL-28) was -52.4% and the growth at 10 µM (MOLT-4) was -29.7%. The growth at 10 µM (HCT-15) was 6.25%, the growth at 0.1 µM (Hs-578T) was 90% and the growth at 10 µM (SK-MEL-5) was 32.2%. It also gave a growth at 10 µM (UACC-257) of 9.38%, a growth at 10 µM (A549) of 9.62% and a growth at 10 µM (NCI-H23) of 15.4%. It also gave a growth at 0.1 µM (SNB-75) of 83%, a growth at 10 µM (NCI/ADR-RES) of 35% and a GI50 (SR; read-out: GI50) of 0.338 µM. For the same compound, the CC50 (SR; [5]) was > 100 µM, the TGI (SR; read-out: TGI) was 15.3 µM and the GI50 (SR; read-out: pGI50 (converted)) was 0.339 µM. For the same compound, the CC50 (SR; [6]) was > 100 µM, the TGI (SR; read-out: pTGI (converted)) was 1.82 µM and the growth at 10 µM (HOP-62) was -2.19%. The growth at 10 µM (SN12C) was 46.4% and the growth at 0.1 µM (HCT-116 [4]) was 102%.

Source: ChEMBL document CHEMBL4308841, “Synthesis, in vitro antiproliferative activity, and kinase inhibitory effects of pyrazole-containing diarylureas and diarylamides” (Eur J Med Chem, 2018)
